Test results as given in US4661483A, “Antihypercholesterolemic lactone compounds, compositions and use” (Merck & Co., Inc., priority 1986, dated 1987).

tested on: HMG-CoA reductase; test: HMG-CoA Reductase Inhibition Assay (in vitro, [14C]HMG-CoA to mevalonolactone); format: biochemical; conditions: IC50 compared with that of compactin determined simultaneously; compactin assigned 100 (footnote b60 prints 10); tested as sodium salt of dihydroxy acid form; solubilized rat liver microsomal enzyme
Description: The intrinsic HMG-CoA reductase inhibition activity of the claimed compounds is measured in the in vitro protocol published in J. Med. Chem., 28, p. 347-358 (1985) and described below:
Isolation of HMG-CoA Reductase
Male Holtzman Sprague-Dawley rats (225-250 g) were kept on reversed lighting and fed Purina rat chow containing 3% cholestyramine for 7 days preceding their sacrifice by CO2 asphyxiation. Livers were removed 6 hours into the dark cycle and used immediately to prepare microsomes. HMG-CoA reductase was solubilized from the freshly prepared microsome by the method of Heller and Shrewsbury [J. Biol. Chem., 1976, 251, 3815] and purified through the second ammonium sulfate precipitation step as described by Kleinsek et al. [Proc. Natl. Acad. Sci. USA, 1977, 74, 1431]. The enzyme preparation was tested for HMG-CoA reductase potency and diluted with 100 mM phosphate buffer (pH 7.2) so that 100 μl of the enzyme solution, when added to the assay control, gave a value of 50,000-60,000 dpm. The enzyme preparation was stored at -80° C.
HMG-CoA Reductase Inhibition Assay
The assay is essentially the procedure of Shefer et al. [J. Lipid Res., 1972, 13, 402]. The complete assay medium contained the following in a total volume of 0.8 ml: phosphate buffer, pH 7.2, 100 mM; MgCl2, 3 mM; NADP, 3 mM; glucose 6-phosphate, 10 mM; glucose-6-phosphate dehydrogenase, 3 enzyme units; reduced glutathione, 50 mM; HMG-CoA (glutaryl-3-^14 C, New England Nuclear), 0.2 mM (0.1 μCi); and partially purified enzyme stock solution, 100 μL.
Test compounds or compactin (after first being converted to the sodium salt of their dihydroxy acid form in situ by addition of 1N NaOH (1 equivalent) were added to the assay system in 10-μL volumes at multiconcentration levels. After a 40-minute incubation at 37° C. with shaking and exposure to air, the reaction was stopped by the addition of 0.4 mL of 8N HCl. After an additional 30-minute incubation period at 37° C. to ensure the complete lactonization of mevalonic acid to mevalonolactone, 0.2 ml of the mixture was added to an 0.5×5.0 cm column containing 100-200 mesh Bio-Rex 5, chloride form (Bio-Rad), wetted with distilled water, as described by Alberts et al. [J. Proc. Natl. Acad. Sci. U.S.A., 1980, 77, 3957]. The unreacted [^14 C]HMG-CoA was absorbed on the resin and the [^14 C]mevalonolactone was eluted with distilled water (2×1 ml) directly into 7-ml scintillation vials. Five milliliters of Aquasol-2 (New England Nuclear) was added to each vial, and radioactivity was measured in a Packard Tri Carb Prias scintillation counter. IC50 values were determined by plotting percentage inhibition against test compound concentration and fitting a straight line to the resulting data by using the least-squares method. For estimation of relative inhibitory potencies, compactin was assigned a value of 100 and the IC50 value of the test compound was compared with that of compactin determined simultaneously.

SMILES	Relative Potency
CC1C=C2C=CC(C)C(CCC(O)CC(O)CC(=O)O)C2C(OC(=O)C(C)(C)C(=O)N2CCOCC2)C1 (centres unmarked)	20
CC1C=C2C=CC(C)C(CCC(O)CC(O)CC(=O)O)C2C(OC(=O)C(C)(C)C(=O)N(C)C)C1 (centres unmarked)	34
CC1C=C2C=CC(C)C(CCC(O)CC(O)CC(=O)O)C2C(OC(=O)C(C)(C)CC(=O)N(C)C)C1 (centres unmarked)	16
CNC(=O)C(C)(C)C(=O)OC1CC(C)C=C2C=CC(C)C(CCC(O)CC(O)CC(=O)O)C21 (centres unmarked)	13
CCN(CC)C(=O)C(C)(C)C(=O)OC1CC(C)C=C2C=CC(C)C(CCC(O)CC(O)CC(=O)O)C21 (centres unmarked)	22
